The nature of series [1]: Solubility.
The format of series [2] is in vitro ADME, human. As to the method:
Commercially supplied pooled human serum (100 uL) (Cambrex Bio Science Walkersville, Inc.) was diluted in ion-exchanged water. An aliquot of the resulting human serum solution was subjected to HPLC analysis (conditions: COSMOSIL 5C18-AR-II column (4.6×200 mm); buffer A; buffer B, 80% acetonitrile in water; gradient, 0-10 min A 100%, 10-60 min A:B=100:0 to A:B=40:60 in 50 min; detection 254 nm, flow rate, 1.0 mL/min, temperature 40° C.). Separately, a 100 uM of c-di-GMP solution in human serum was prepared by adding 100 uL of a 500 uM c-di-GMP aqueous solution to a mixture of 390 uL of human serum and 10 uL of 40 mM 2-methylbenzimidazole (an internal standard for estimating the extent of decomposition of c-di-GMP) in methanol. An aliquot of the test solution was diluted immediately after the preparation solution and then heated at 100° C. for 5 min to quench activity of enzymes. The resulting test sample was subjected to HPLC analysis after 24 h treatment. Peaks that appeared in both analyses were compared. Results are based on 3 independent experiments.

Series [3] relates to lung leukocytes. In words: Lung leukocyte accumulation in Klebsiella-infected mice (lung digest, flow cytometry). It counts as in vivo, Balb/c mice.
Series [4] deals with Primary hippocampal cells. In words: Staurosporine-induced cell death in primary hippocampal cultures (CellTiter 96 AQueous Assay). It counts as cell-based. The note with it: 100 nM, 22 h. As to the method: To assess the role of cyclic dinucleotides in modulating the neurological response, i.e., prevent cell death induced by staurosporine (STS) in primary hippocampal nerve cells, the effects of c-di-GMP on hippocampal cells was analyzed. Primary hippocampal cells were prepared according to previously described methods (Pereira et al., 1993). Briefly, the hippocampi were dissected from the brain of 18-day-old fetal rats. Following enzymatic and mechanical dissociation, cells were plated at a density of 100,000 cells/well in 96-well plates pre-coated with matrigel. At the 7th day after plating, cultures were subjected to one of the following treatments: (i) vehicle (24 h), (ii) STS (100 nM, 22 h), (iii) c-di-GMP (24 h), (iv) c-di-GMP (2 h) followed by c-di-GMP -plus-STS (22 h), (v) c-di-GMP -plus-STS (24 h), or (vi) STS (2 h) followed by c-di-GMP -plus-STS (22 h). At the end of the treatments, cell viability was analyzed using CellTiter 96® AQueous Assay (Promega). The assay involves the spectrophotometric measurement (at 490 nm) of the mitochondrial conversion of a tetrazolium dye into a colorful product. The absorbance of the assay correlates with the number of metabolically active cells.

Series [5] relates to human basophils. In words: IgE-dependent histamine release by human basophils. Format: cell-based. The conditions noted are these: 15 minutes pretreatment. As to the method: (§1) Studies investigating the effect of the TBDMS-cGpGp analog on IgE-dependent IL-4 and histamine secretion induced by cross-linking were then performed. […] The inhibition of IL-4 was evident using the TBDMS-cGpGp analog as well as the cGpAp analog. Note that IgE-mediated histamine release is 90% complete within 20 minutes after stimulation- histamine is preformed and store in cytoplasmic granules. Although IL-4 is not preformed, it is rapidly generated denovo and secreted within 3-6 hours. In performing these experiments, a standard protocol for testing various anti-allergic drugs was used.
Specifically, the basophils were pretreated 15 minutes with the analogs before adding anti-IgE antibody for activation. Culture supernatants were analyzed for histamine and IL-4 three hours later. Thus, unlike the IL-13 induced by IL-3 during an 18-20 h culture, the release of histamine and IL-4 are far more rapid under IgE crosslinking conditions. It may be that inhibition would be greater if a greater pre-incubation time was performed with the analogs. Additional experiments will test different pre-incubation times to determine whether greater inhibition is observed. It is important to note that neither analog induced histamine release or IL-4 when used alone at the 50 uM concentration. […]

Series [6] deals with pDC. In words: Cytokine secretion by pDC treated with TBDMS analog. Format: cell-based, human. As to the method:
Whether or not TBDMS would directly induce (or affect CpG-dependent) cytokine (IL-6, TNF-alpha, IL-10) secretion was then tested. […] IL-6 was not measured. […] Cells from one of the 3 subjects did secrete 100-200 pg/10^6 cells more TNF-alpha than the ˜400 secreted in medium alone. The same pattern was seen using these cells when the combination of CpG and TMDMS was used. However, these effects were not evident for the other two pDC preparations.

Series [7] concerns human basophils. In words: IL-3 dependent IL-13 secretion by human basophils. It counts as cell-based. The note with it: for inhibition of IL-13 induced by IL-3: 18-20 h culture, FIG. 18A.
Series [8] has as its system human basophils. In words: IgE-dependent IL-4 secretion by human basophils. It counts as cell-based. As to the method: as §1
Specifically, the basophils were pretreated 15 minutes with the analogs before adding anti-IgE antibody for activation. Culture supernatants were analyzed for histamine and IL-4 three hours later. Thus, unlike the IL-13 induced by IL-3 during an 18-20 h culture, the release of histamine and IL-4 are far more rapid under IgE crosslinking conditions. It may be that inhibition would be greater if a greater pre-incubation time was performed with the analogs. Additional experiments will test different pre-incubation times to determine whether greater inhibition is observed. It is important to note that neither analog induced histamine release or IL-4 when used alone at the 50 uM concentration. T this is additional evidence that the inhibitory effect in not due to toxicity- histamine would most likely be released if the analogs were causing cell lysis.
IL-4 measurements were made in an experiment where the cyclic dinucleotide analogs were tested in a 1 hour pretreatment of basophils before activating with anti-IgE antibody. The control release to anti-IgE antibody was 262 pg/106 basophils (a relatively robust response being that cell responsiveness decreases the longer the wait before activating). Both the TBMDS-cGpGp and cGpAp analogs produced ˜30% inhibition at the 50μM concentration. […] It may be that overnight incubation with cyclic dinucleotide (similar to the IL-13 inhibition studies) would show even greater inhibition.

Series [9] deals with basophils. In words: SOCS expression in basophils (real-time PCR). It counts as cell-based, human. As to the method:
Whether or not cyclic dinucleotides affected induction of SOCS (Suppresser Of Cytokine Synthesis) expression in basophils treated with CDN's was then tested. […] Cells were treated for 18 h, total RNA isolated, and RT-PCR performed for SOCS-1, SOCS-3, and the HPRT housekeeping gene. The fact that cGpGp also induces SOCS-1 may explain why some inhibition of IL-3-induced IL-13 secretion is observed with this cyclic dinucleotide analog. […] In the current IL-13 assay, the cyclic dinucleotide is added simultaneously with IL-3. The TBDMS-cGpGp likely induces SOCS-1 expression faster and thus accounts for greater inhibition of IL-13. […] While modest inhibitory activity with cGpGp was observed, evidence that cGpGp induces SOCS-1 and sometimes better than TBDMS-cGpGp at this particular time point was observed. These differences might be explained by kinetics and it may be that SOCS gene expression would be higher following TBDMS-cGpGp treatment when examined at an earlier time point.
In general terms: Quantitative PCR measures a nucleic acid by following its amplification.

Where [10] appears, read: 50 uM, 15 minutes pretreatment, supernatants three hours later, FIG. 18B.
The mark [11] stands for this setting: 50μM, 1 hour pretreatment, control release 262 pg/106 basophils.

As for `Cc1nc2ccccc2[nH]1` [2-methylbenzimidazole, reference compound], the “solubility in water, methanol, and acetonitrile” value in series [1] was “fairly soluble”. Further, the “stability in human serum” value in series [2] was “stable”.

Turning to `Nc1nc2c(ncn2[C@@H]2O[C@@H]3COP(=O)(O)O[C@H]3[C@H]2O)c(=O)[nH]1` [CTL, reference compound], the “Total number lung cells” value in series [3] (i.n. pretreatment 48 and 24 hr prior, lung digests 48 hrs after K. pneumoniae (kp), uninfected 2.7 × 10^7) is listed as 3.57 × 10^7. In addition, the “αβTcr^+, CD69^+” value in [3] (lung digests 48 hrs after kp, uninfected 0.33 × 10^5) is 2.7 × 10^5. For the same compound, in [3] (lung digests 48 hrs after kp, uninfected 0.78 × 10^5), the “DX5^+, CD69^+” value is 2.7 × 10^5. Moreover, the PMN in [3] (lung digests 48 hrs after kp, uninfected 0.8 × 10^6) is listed as 7.35 × 10^6. In addition, the “DX5^+ (NK)” value in series [3] (lung digests 48 hrs after kp, uninfected 1.3 × 10^6) is reported as 2.5 × 10^6. Besides, the “DX5^+, αβγδTcr^+(NK T^+)” value in [3] (lung digests 48 hrs after kp, uninfected 1.6 × 10^5) is on record as 4.7 × 10^5. In addition, in series [3] (lung digests 48 hrs after kp, uninfected 2.3 × 10^7), the Mono/Macrophage is 2.88 × 10^7. Also, the “αβTcr^+” value in series [3] (lung digests 48 hrs after kp, uninfected 2.6 × 10^6) was 3.38 × 10^6.

As to `CN[C@@H]1C[C@H]2O[C@@](C)([C@@H]1OC)n1c3ccccc3c3c4c(c5c6ccccc6n2c5c31)C(=O)NC4` [STS, staurosporine, reference compound], the “cell death in primary hippocampal cultures” value in [4] is reported as “caused significant cell death”.

On to `CC(C)(C)[Si](C)(C)O[C@@H]1[C@@H]2OP(=O)(O)OC[C@H]3O[C@@H](n4cnc5c(=O)[nH]c(N)nc54)[C@H](O)[C@@H]3OP(=O)(O)OC[C@H]2O[C@H]1n1cnc2c(=O)[nH]c(N)nc21` [TBDMS-cGpGp, 2′-O-TBDMS-c-di-GMP], for which the “effect on IgE-dependent histamine release” value in series [5] is listed as “essentially no effect”. The “effect on TNF-alpha and IL-10” value in series [6] (alone or with CpG) is listed as “little to no effect”. The “TNF-alpha secreted above the ˜400 in medium alone” value in series [6] (cells from one of the 3 subjects) is 100-200 pg/10^6 cells. Besides, in series [6] (used by itself, n=3), the IL-10 secretion result was “did not cause IL-10 secretion”. For the same compound, the “inhibition of IL-13 induced by IL-3” value in [7] (10 micromolar) is listed as 30-40%; in series [7] (50 micromolar, at least 5 independent experiments), 70-80%. Moreover, the results for the “inhibition of IgE-dependent IL-4” value in [8] (setting [10]) and in series [8] (setting [11]) were 30% and about 30%, respectively. The “time of SOCS mRNA peak” value in [9] is about 12 h. Besides, the “SOC-3 mRNA” value in series [9] (18 h treatment) is given as “induced”. The “SOCS-1 mRNA” value in series [9] (18 h treatment) was “induced”.

In the case of `Nc1nc2c(ncn2[C@@H]2O[C@@H]3COP(=O)(O)O[C@H]4[C@@H](O)[C@H](n5cnc6c(N)ncnc65)O[C@@H]4COP(=O)(O)O[C@H]3[C@H]2O)c(=O)[nH]1` [cGpAp], in series [7] (under the conditions tested), the “effect on IL-13 induced by IL-3” value was “little effect”. Moreover, the “inhibition of IgE-dependent IL-4” value is on record as “evident” in [8] (setting [10]) and about 30% in [8] (setting [11]).

For `Nc1nc2c(ncn2[C@@H]2O[C@@H]3COP(=O)(O)O[C@H]4[C@@H](O)[C@H](n5cnc6c(=O)[nH]cnc65)O[C@@H]4COP(=O)(O)O[C@H]3[C@H]2O)c(=O)[nH]1` [cGpIp], the “enhancement of IL-13 induced by IL-3” value in [7] (two experiments) was 25%.

(Values after patent US7592326B2, “Method for stimulating the immune, inflammatory or neuroprotective response” (priority 2004, dated 2009).)
